Measurements reported in US20160106711A1, “3-3-Di-Substituted-Oxindoles as Inhibitors of Translation Initiation” (President and Fellows of Harvard College, priority 2012, published 2016).

Legend:
CRL-2813 = test: Cell growth assay (sulforhodamine B), CRL-2813 cells; type: cell-based, human; conditions: Homo sapiens, CRL2813, 120 h, 5 days, SRB
Description: (§1) Adherent mouse (KLN) and human solid tumor cells (CRL-2351, and CRL-2813) were plated in 96-well plates and maintained for 5 days in the presence of 0.54 to 6 μM of individual compound, and cell proliferation was measured by the sulforhodamine B (SRB) assay as described in ref. 11: briefly, cells were fixed in 10% cold trichloroacetic acid at 4° C. for 1 h, extensively washed with double-distilled H2O and air-dried. Plates were then incubated with 0.4% SRB in 1% acetic acid for 1 h, washed with 1% acetic acid to remove the unbound dye, and air-dried. The bound dye was solubilized by addition of 10 mM Tris (pH 10), and the absorbance was determined in a Titertek Multiscan plate reader at 490 nm. The data calculations were carried out as described (the values for mean±SD of data from replicate wells are calculated): data are expressed in terms of % T/C [(OD of treated cells/OD of control cells)×100], as a measure of cell viability and survival in the presence of test materials. Calculations are also made for the concentration of test agents giving a T/C value of 50%, or 50% growth inhibition (IC50). With the SRB assay, a measure is made of the cell population density at time 0 (the time at which drugs are added) from two extra reference plates of inoculated cells fixed with TCA just prior to drug addition to the test plates. Thus, we have three measurements: control optical density (C), test optical density (T), and optical density at time zero (T0). The calculation is 100×[(T−T0)/(C−T0)]. If T is less than T0, cell killing has occurred and can be calculated from 100×[(T−T0)/T0]. Thus, for each drug-cell line combination, a dose-response curve is generated and three levels of effect are calculated.

CRL-2351 = test: Cell growth assay (sulforhodamine B), CRL-2351 cells; type: cell-based, human; conditions: Homo sapiens, 120 h, 5 days, SRB
Description: as §1

KLN = test: Cell growth assay (sulforhodamine B), KLN cells; type: cell-based, mouse; conditions: Mus musculus, 120 h, 5 days, SRB
Description: as §1, with “Adherent mouse (KLN) and human solid tumor cells (CRL-2351, and CRL-2813) were plated in 96-well plates and maintained for 5 days in the presence of 0.54 to 6 μM of individual compound, and cell proliferation was measured by the sulforhodamine B (SRB) assay as described in ref. 11: briefly, cells were fixed in 10% cold trichloroacetic acid at 4° C. for 1 h, extensively washed with double-distilled H2O and air-dried.” left out

[1] = system: eIF2•GTP•Met-tRNAi ternary complex; test: Ternary complex assay (ATF-4 assay), dual luciferase firefly/renilla ratio; type: cell-based, mouse; conditions: Mus musculus; for maximal fold induction at 40 µM: read-out: ATF-4 Xmax @ 40 μM
Text: For assay development, a bi-directional plasmid was designed in which a common promoter/enhancer complex drives the transcription of firefly luciferase (F-luc) ORF fused to the 5′ untranslated region (UTR) of ATF-4, and of the renilla luciferase (R-luc) ORF fused to a 90-nucleotide 5′ UTR derived from the plasmid (FIG. 6A). Because the tetracycline-regulated transactivator ((tTA), required for driving transcription from this vector) is not normally expressed in the mammalian cells, stable KLN cancer cells were constructed that expressed tTA (KLN-tTA).
The KLN-tTA colonies that drove expression of reporter genes from pBISA-DL plasmid were selected by transient transfection and dual luciferase assay. One of these KLN-tTA cell lines was transfected with the pBISA-DL^(ATF-4) expression vector, stable colonies were selected by dual luciferase assay and expanded.
Plasmids and Ternary Complex Assay
(ATF-4 Assay). Briefly, bi-directional mammalian expression vector pBI (Clontech, CA) was modified to expand the multiple cloning sites (MCSs) and designated thereafter as pBISA. This vector contains seven copies of the tetracycline-regulated transactivator response element (TRE), which together act as core promoter/enhancer. The TRE is flanked on both sides by minimal human cytomegalovirus (CMV) minimal promoters allowing bi-directional transcription and two MCSs. Firefly and renilla luciferases were subcloned into MCS-I and MCS-II, respectively. This plasmid, designated pBISA-DL, transcribes two mRNAs that contain the 90 nucleotide plasmid derived 5′UTR (same sequence in both mRNAs), and the ORF encoding either firefly or renilla luciferase followed by a polyadenylation sequence as described in Ziegeler, G.; Ming, J.; Koseki, J. C.; Sevinc, S.; Chen, T.; Ergun, S.; Qin, X.; Aktas, B. H. J. Biol. Chem. 2010, 285, 15408 hereby incorporated by reference. This plasmid was further modified by inserting the 5′UTR of ATF-4 into MCS-I in front of the firefly luciferase mRNA. Transcription from this direction generates an mRNA that contains the firefly luciferase ORF preceded by a 5′UTR composed of 90 nucleotides derived from the plasmid and 267 nucleotides derived from the 5′UTR of ATF-4 mRNA. Transcription from the other direction generates an mRNA that contains the renilla luciferase ORF proceeded only by the 90-nucleotide plasmid-derived sequence in the 5′UTR. This expression plasmid is called pBISA-DL(ATF-4). In the dual luciferase assay, cells expressing firefly and renilla luciferases were lysed and the extracts assayed with a Dual-Glo Luciferase assay kit, per manufacturer's instruction (Promega Inc., Madison, Wis.). The data calculations were carried out as the ratio of firefly to renilla luciferase signal as described in Chen, T.; Ozel, D.; Qiao, Y.; Harbinski, F.; Chen, L.; Denoyelle, S.; He, X.; Zvereva, N.; Supko, J. G.; Chorev, M.; Halperin, J. A.; Aktas, B. H. Nat. Chem. Biol. 2011, 7, 610 hereby incorporated by reference.

SMILES	IC50 (CRL-2813) [µM]	IC50 (CRL-2351) [µM]	IC50 (KLN) [µM]	maximal fold induction at 80 µM ([1]; read-out: ATF-4 Xmax)	maximal fold induction at 20 µM ([1]; read-out: ATF-4 Xmax)	maximal fold induction at 40 µM [1]	maximal fold induction at 2.5 µM ([1]; 2.5 uM, read-out: ATF-4 Xmax)	maximal fold induction at 10 µM ([1]; read-out: ATF-4 Xmax)
C#CCOc1ccc(C(C)(C)C)cc1C1(c2ccccc2)C(=O)Nc2ccccc21 (centres unmarked) [Sd123, 3-[5-tert-butyl-2-(prop-2-yn-1-yloxy)phenyl]-3-phenylindol-2-one]	> 20	17.5 ± 2	> 20	5.1 ± 1.65				
O=C1Nc2ccccc2C1(c1cc(C2CCCC2)ccc1OCCO)c1cc(C2CCCC2)ccc1OCCO [HY058]	1.3 ± 0.4	2.4 ± 0.1	15.2 ± 1.1		3.35 ± 0.74			
CC(C)(C)c1ccc(O)c(C2(c3ccccc3)C(=O)Nc3ccc4ncsc4c32)c1 (centres unmarked) [Sd233]	0.95 ± 0.1	2.2 ± 1	8			1.2 ± 0.05		
CC(C)Oc1ccc(O)c(C2(c3ccccc3)C(=O)Nc3ccccc32)c1 (centres unmarked) [HY032, 3-(2-Hydroxy-5-Isopropoxyphenyl)-3-Phenylindolin-2-One]	10.5 ± 1.9	4.8 ± 1.6	16.1 ± 2.2			4.65 ± 0.58		
CN(C)CCN1C(=O)C(c2cc(C(C)(C)C)ccc2O)(c2cc(C(C)(C)C)ccc2O)c2ccccc21 [HY087]	> 20	2.7 ± 0.2	> 20		7.12 ± 1.3			
CN(C)CCOc1ccc(C(C)(C)C)cc1C1(c2cc(C(C)(C)C)ccc2OCCN(C)C)C(=O)N(CCN(C)C)c2ccccc21 [HY092]	0.9 ± 0.01	0.34 ± 0.18	0.2 ± 0.03				16.8 ± 2.18	
CC(C)(C)c1ccc(O)c(C2(c3cc(C(C)(C)C)ccc3OCCN3CCOCC3)C(=O)Nc3ccccc32)c1 (centres unmarked) [HY063]	3.2 ± 0.2	1.6 ± 0.2	7.4 ± 2.5			4.4 ± 1.5		
CC(C)(C)c1ccc(O)c(C2(c3cc(C(C)(C)C)ccc3O)C(=O)Nc3ccccc32)c1 [HY021, 3,3-Bis(5-tert-Butyl-2-Hydroxyphenyl)Indolin-2-One]	10.2 ± 1.2	2.8 ± 0.4	12 ± 0.7		10.6	4.4		5.2 ± 2.2
CC(C)(C)c1ccc(O)c(C2(c3cc(C(C)(C)C)ccc3OCCN3CCCC3)C(=O)N(CCN3CCCC3)c3ccccc32)c1 (centres unmarked) [HY093]	7.25 ± 1.6	3.6 ± 0.7	4.1 ± 0.8		2.21 ± 0.75	9 ± 1.7		
CC(C)(C)c1ccc(OCCN2CCOCC2)c(C2(c3ccccc3)C(=O)Nc3ccccc32)c1 (centres unmarked) [Sd029, 3-(5-tert-Butyl-2-(2-morpholinoethoxy)phenyl)-3-phenylindolin-2-one]	2.4 ± 0.3	3.35 ± 0.3	6.8 ± 3.7			4 ± 0.1		
CN(C)CCOc1ccc(C(C)(C)C)cc1C1(c2ccccc2)C(=O)Nc2ccccc21 (centres unmarked) [Sd028, 3-(5-tert-Butyl-2-(2-(dimethylamino)ethoxy)phenyl)-3-phenylindolin-2-one]	2.4 ± 0.4	1.4 ± 0.3	1.2 ± 0.3					2.69 ± 0.36
O=C1Nc2c(ccc(F)c2F)C1(c1ccc(O)cc1)c1ccc(O)cc1 [SD132]	3.74 ± 0.28	> 20	> 20	8.8 ± 1.97				
CC(C)(C)c1ccc(O)c(C2(c3ccccc3)C(=O)Nc3ccc(I)cc32)c1 (centres unmarked) [Sd223]	2.8 ± 0.2	3.5	14.9 ± 3.8			7.2 ± 1.2		
COc1ccc(C2(c3cc(C(C)(C)C)ccc3O)C(=O)Nc3ccc(OC)cc32)cc1 (centres unmarked) [Sd184]	11.1 ± 1.1	2.9 ± 0.3	14.3 ± 3			4 ± 0.36		
CC(C)(C)c1ccc(OCCN2CCCCC2)c(C2(c3cc(C(C)(C)C)ccc3OCCN3CCCCC3)C(=O)Nc3ccccc32)c1 [HY172]	11.6 ± 1.4	2.14 ± 1.28	1.3 ± 0.3	5.91 ± 0.52				
CC(C)(C)c1ccc(O)c(C2(c3ccc(O)cc3)C(=O)Nc3ccccc32)c1 (centres unmarked) [Sd096]	4 ± 0.28	2	17.3 ± 1.8			1.69 ± 0.6		
COC(=O)c1cccc2c1NC(=O)C2(c1ccc(OC)cc1)c1cc(C(C)(C)C)ccc1O (centres unmarked) [Sd202]	12.2 ± 0.5	3.4 ± 0.6	> 20			4.12 ± 0.42		
CN(C)CCOc1ccc(C(C)(C)C)cc1C1(c2cc(C(C)(C)C)ccc2OCCN(C)C)C(=O)Nc2ccccc21 [HY177]	12.5 ± 1	11.5 ± 1.5	> 20			1.34 ± 0.38		
CC(C)(C)c1ccc(OCCN2CCNCC2)c(C2(c3cc(C(C)(C)C)ccc3OCCN3CCNCC3)C(=O)Nc3ccccc32)c1 [HY401]	1.5 ± 0.9	0.8 ± 0.1	10.6 ± 0.9			11.4 ± 0.65		
COc1ccc(C2(c3cc(C(C)(C)C)ccc3OCCN3CCOCC3)C(=O)Nc3ccccc32)cc1OC (centres unmarked) [Sd152, 3-{5-tert-butyl-2-[2-(morpholin-4-yl)ethoxy]phenyl}-3-(3,4-dimethoxyphenyl)-indol-2-one]	> 20	> 20	> 20	2.8				
CC(=O)OCCOc1ccc(C(C)(C)C)cc1C1(c2cc(C(C)(C)C)ccc2O)C(=O)Nc2ccccc21 (centres unmarked) [HY084]	1.6 ± 0.4	2.7 ± 0.2	11.4 ± 0.2	11.4 ± 0.4		8.59 ± 1.67		
COc1ccc(C2(c3cc(C(C)(C)C)ccc3OCCN3CCOCC3)C(=O)Nc3ccc(OC(F)(F)F)cc32)cc1 (centres unmarked) [Sd225]	1.9 ± 0.7	2.9 ± 0.27	9.3 ± 2.7			5.11 ± 0.48		
